Assay results as given in US20170115269A1, “ACYLCARNITINE COMPOSITION” (SEKISUI MEDICAL CO., LTD., priority 2014, published 2017).

Assay: Storage stability of acylcarnitine-stable isotopes in methanol solution at room temperature (Reference Example 1, LC-MS/MS residual rate)
Type: physicochemical
Description: Acylcarnitine solutions were acquired by dissolving acylcarnitine-stable isotopes into methanol to concentrations listed in Table 3. The acylcarnitine-stable isotopes were measured under the following conditions. The acylcarnitine solutions were measured immediately before storage (prepared at the time of use) and after storage for predetermined periods, and the residual rate (%) was calculated from the acquired peak area ratio using Equation 2 described below.
System: LC-20A series (manufactured by Shimadzu Corporation) and 4000 QTRAP (manufactured by AB Sciex) […]
Mobile phase: mobile phase A, 0.5% (v/v) formic acid aqueous solution mobile phase B, 500 mmol/L ammonium formate aqueous solution: 500 mmol/L ammonium hydroxide (9:1)/methanol=1/9
Analysis time: 70 minutes
LC column: Scherzo SS-C18, 3 μm, 3.0×150 mm (manufactured by Imtact Corporation) Column temperature: 50° C.
Sample injection amount: 5 μL
Ionization mode: ESI (electrospray ionization)
Ion source: Turbo IonSpray
Q1/Q3 is described in Table 3.

[1] = storage period 2 M (two months)

| SMILES | Res. Rt (Residual Rate) (storage period 1 M (one month)) [%] | Res. Rt (Residual Rate) [1] [%] |
| --- | --- | --- |
| [2H]C([2H])([2H])[N+](C)(C)CC(CC(=O)[O-])OC(=O)CC(C)(C)O (stereo not shown) [^2H3-(3-Hydroxyisovaleryl)-carnitine] | 99.9 | 97.9 |
| [2H]C([2H])([2H])[N+](C)(C)CC(CC(=O)[O-])OC(=O)CCC (stereo not shown) [^2H3-Butyrylcarnitine] | 101.7 | 63.8 |
| [2H]C([2H])([2H])[N+](C)(C)CC(CC(=O)[O-])OC(=O)CCCCCCCCCCC (stereo not shown) [^2H3-Dodecanoylcarnitine] | 103.1 | 84.9 |
| [2H]C([2H])([2H])[N+](C)(C)CC(CC(=O)[O-])OC(=O)CCCC(=O)O (stereo not shown) [^2H3-Glutarylcarnitine] | 99.3 | 63.3 |
| [2H]C([2H])([2H])[N+](C)(C)CC(CC(=O)[O-])OC(=O)CCCCCCCCCCCCCCCCC (stereo not shown) [^2H3-Octadecanoylcarnitine] | 103.7 | 69.6 |

Now from value to molecule:

| Res. Rt (Residual Rate) (storage period 1 M (one month)) [%] | Res. Rt (Residual Rate) [1] [%] | SMILES |
| --- | --- | --- |
| 103.3 | 70.3 | [2H]C([2H])([2H])[N+](C)(C)CC(CC(=O)[O-])OC(=O)CCCCCCC (stereo not shown) [^2H3-Octanoylcarnitine] |
| 101.2 | 62.6 | [2H]C([2H])([2H])[N+](C)(C)CC(CC(=O)[O-])OC(=O)CCCCCCCCCCCCCCC (stereo not shown) [^2H3-Palmitoylcarnitine] |
| 97.4 | 38.5 | [2H]C([2H])([2H])[N+](C)(C)CC(CC(=O)[O-])OC(=O)CC (stereo not shown) [^2H3-Propionylcarnitine] |
| 100.9 | 100.2 | [2H]C([2H])([2H])[N+](C[C@H](O)CC(=O)[O-])(C([2H])([2H])[2H])C([2H])([2H])[2H] [^2H9-Carnitine] |
| 100.3 | 99.4 | [2H]C([2H])([2H])[N+](CC(CC(=O)[O-])OC(=O)CC(C)C)(C([2H])([2H])[2H])C([2H])([2H])[2H] (stereo not shown) [^2H9-Isovalerylcarnitine] |
| 103.9 | 67.8 | [2H]C([2H])([2H])[N+](CC(CC(=O)[O-])OC(=O)CCCCCCCCCCCCC)(C([2H])([2H])[2H])C([2H])([2H])[2H] (stereo not shown) [^2H9-Myristoylcarnitine] |
